The subject of data set [1] is luciferase reporter under the control of an HIF-responsive sequence in HCT 116 cells. The data set is described as follows: HIF luciferase assay. The class given is cell-based. The conditions noted are these: Homo sapiens; HCT 116 reporter cells, hypoxia chamber (1% O2), 24 h; comparison compound. On the procedure: HCT 116 cells were stably transfected with a plasmid which contained a luciferase reporter under the control of an HIF-responsive sequence. These cells were sown in microtitre plates [20 000 cells/cavity in RPMI 1640 medium with 10% foetal calf serum (FCS) and 100 μg/ml of hygromycin]. They were incubated overnight under standard conditions (5% CO2, 21% O2, 37° C., moistened). The following morning the cells were incubated with different concentrations of the test substances (0-10 μmol/l) in a hypoxia chamber (1% O2). After 24 h, Bright Glo reagent (Promega, Wis., USA) was added in accordance with the manufacturer's instructions, and after 5 min the luminescence was measured. Cells which were incubated under normoxia served as background controls.

Data set [2] is described as follows: Pharmacokinetic parameters after intravenous administration in rats. The data set is classed as in vivo. To be noted: rat, plasma, i.v., comparison compound, read-out: CLplasma (plasma clearance) (converted). On the procedure:
(§1) The substance to be examined was administered to animals (for example mice or rats) intravenously as a solution (for example in corresponding plasma with a small addition of DMSO or in a PEG/ethanol/water mixture), and peroral administration was effected as a solution (for example in Solutol/ethanol/water or PEG/ethanol/water mixtures) or as a suspension (e.g. in tylose), in each case via a gavage. After administration of the substance, blood was taken from the animals at fixed times. The blood was heparinized, then plasma was obtained therefrom by centrifugation. The substance was quantified analytically in the plasma via LC-MS/MS. From the plasma concentration/time plots determined in this way, using an internal standard and with the aid of a validated computer program, the pharmacokinetic parameters, such as AUC (area under the concentration/time curve), Cmax, (maximum plasma concentration), t1/2 (half life), VSS (distribution volume) and CL (clearance), and the absolute and relative bioavailability F and Frei (i.v./p.o. comparison or comparison of suspension to solution after p.o. administration), were calculated.
The substance to be examined was administered intravenously to rats, in each case in amounts between 0.3 and 1.0 mg/kg as a solution in plasma which contained up to 2% DMSO.

Data set [3] is described as follows: Pharmacokinetic parameters after peroral administration in rats. The data set is classed as in vivo. The conditions noted are these: 1-3 mg/kg, solution in Solutol/ethanol/water. The protocol:
as §1
To determine the active ingredient release from a prodrug compound, the prodrug was administered either intravenously or perorally, as described above, and the concentrations both of the prodrug and of the active ingredient released were quantified in the processed plasma.
The substance to be examined was administered perorally to rats, in each case in amounts between 1 and 3 mg/kg as a solution in Solutol/ethanol/water (40:10:50 or 40:20:40). The kinetic parameters determined for Working Example 1 are shown below by way of example for the inventive compounds [AUCnorm=dose-normalized exposure (area under the concentration/time curve)]:
The second row in this table gives the pharmacokinetic parameters for Example 1, as obtained after peroral administration of the prodrug compound from Example 15 (1 mg/kg of crystalline substance as a tylose suspension in water).

In the case of `Cc1ccc(Cn2nc(-c3nc(-c4ccc(OC(F)(F)F)cc4)no3)cc2C)cc1` [Example 1 in WO 2008/141731-A2, 5-[5-methyl-1-(4-methylbenzyl)-1H-pyrazol-3-yl]-3-[4-(trifluoromethoxy)phenyl]-1,2,4-oxadiazole, reference compound], in data set [1], the IC50 (in general, the concentration needed to halve the response being measured) was found to be 30 nM. Besides, the clearance (as a rule, a measure of how efficiently the substance is removed, as volume per time) in data set [2] was 6.67 mL/min/kg. Also, the “AUCnorm (dose-normalized exposure)” value in data set [3] (p.o.) came to 1.9 kg·h/L. Also, the bioavailability – broadly, the share of a dose that reaches the circulation, judged against a reference dose that is usually intravenous – in data set [3] (rat, plasma, po, read-out: F (bioavailability)) came to 74%.

(Values after patent US20130172311A1, “Substituted heterocyclyl benzyl pyrazoles, and use thereof” (BAYER INTELLECTUAL PROPERTY GMBH, priority 2010, published 2013).)
